By CC50 is commonly meant the concentration that lowers cell viability or growth by half. By IC50 is commonly meant the concentration that inhibits the measured activity by half.

17 molecules from PMC9081833, “Discovery of acylphloroglucinol-based meroterpenoid enantiomers as KSHV inhibitors from Hypericum japonicum” (RSC Advances, 2018) can be followed below.

Where two headings read alike, the source gives them in different places. Where only a bound is given, the exact number is not on record here.

The test system of series [1] is KSHV lytic replication. Nature of the series: Field-based 3D QSAR model of anti-KSHV activity. Further details: species or system Kaposi's sarcoma associated herpesvirus (KSHV); unit not given here. The conditions noted are these: log IC50 of the anti-KSHV IC50. The text has this: Qualitative analysis was followed by quantitative SAR (QSAR) modelling utilizing the Field-Based QSAR Panel implemented in Schrödinger Suite[14] to set up CoMFA/CoMSIA models from these enantiomers. These enantiomers first superimposed using the flexible shape-based alignment method (Fig. 6). […] Experimental activities of additional analogues would likely provide a better model. Moreover, correlation between the observed activities and the predicted activities was plotted in Fig. 7.
QSAR studies were conducted with Schrödinger Suite 2017-1.
A data set (Table 3) was randomly assigned into training and test sets with a ratio of approximately 4/1, and their activities (IC50) were converted to the logarithm (log IC50). The minimized conformations of these enantiomers were generated utilizing LigPrep and aligned according to the flexible shape-based alignment method. The force field was used and the maximum PLS factors were set as 1/5 of the total number of the training set in order to avoid over-fitting. The parameters that were not mentioned were left as defaults.

A short description of series [2]: in vitro. Particulars: human, CC50, 50% cytotoxic concentration, iSLK.219 cells, 48 h, with Dox and NaB.
Series [3] relates to KSHV lytic replication. Nature of the series: in vitro. The conditions noted are these: human, Selective index (CC50/IC50).
The subject of series [4] is KSHV lytic replication. The series is described as follows: microbe, parasite or virus in culture. The conditions noted are these: Human gammaherpesvirus 8, Vero, 48 h, supernatant of iSLK.219 cells treated 48 h used to infect Vero cells 48 h, GFP readout.
Series [5] concerns Human iSLK.219 cells. The conditions noted are these: 50% cytotoxic concentration, 48 h, with Dox and NaB.
Series [6] deals with KSHV lytic replication. The conditions noted are these: for Selective index (CC50/IC50): human; for IC50: supernatant of iSLK.219 cells treated 48 h used to infect Vero cells 48 h, GFP readout.

In turn, `CC(C)C(=O)c1c(O)cc(O)c2c1OC1(C)CCC(C(C)(C)O)C2C1O` (stereo not shown) [Compound 5a] returned an Observed activity in series [1] of 2.307. The molecule also displayed a half-maximal cytotoxic concentration (CC50) in series [2] of more than 500 µM. The selectivity ratio in series [3] was more than 2.46. The molecule further gave an IC50 in series [4] of 203 µM.

In series [1], `CC(C)=CCCC(C)(O)C1Cc2c(O)cc(O)c(C(=O)c3ccccc3)c2O1` (single isomer, unassigned; (-)) [Compound 4b, (−)-japonicol H] returned an Observed activity of 1.469. This molecule displayed a CC50 in series [5] of more than 200 µM. Moreover, in series [6], the “Selective index (CC50/IC50)” value was more than 6.79 and the concentration for half-maximal inhibition (IC50) came to 29.5 µM.

In the case of `CC(C)C(=O)c1c(O)cc(O)c2c1OC(C)(C)C1CCC(C)(O)C1C2` (stereo not shown) [Compound 7a], in series [1], the Observed activity came out at 0.942. The molecule also showed a half-inhibitory concentration (IC50) in series [6] of 17.7 µM. This molecule showed a half-maximal cytotoxic concentration (CC50) in series [2] of 221 µM.

With `CC(C)=CCCC(C)(O)C1Cc2c(O)cc(O)c(C(=O)c3ccccc3)c2O1` (single isomer, unassigned; (+)) [Compound 4a, (+)-japonicol H], in series [1], the Observed activity came to 0.690. For the same molecule, in series [6], the “Selective index (CC50/IC50)” value worked out at 25.70 and it took 4.9 µM to reach half-maximal inhibition (IC50). The midpoint of cytotoxicity in series [2], the CC50, lay at 126 µM.

As for `CC(C)=CCCC(C)(O)C1Cc2c(O)cc(O)c(C(=O)C(C)C)c2O1` (single isomer, unassigned; (-)) [Compound 3b, (−)-japonicol G], in series [1], the Observed activity stood at 0.826. The molecule also yielded a CC50 in series [5] of 50.1 µM. In series [6], the “Selective index (CC50/IC50)” value amounted to 7.48 and it took 6.7 µM to reach half-maximal inhibition (IC50).

With `CC(C)=CCCC(C)(O)C1Cc2c(O)cc(O)c(C(=O)C(C)C)c2O1` (single isomer, unassigned; (+)) [Compound 3a, (+)-japonicol G], the Observed activity in series [1] is 1.337. In addition, in series [6], the “Selective index (CC50/IC50)” value was 3.66 and the IC50 turned out to be 21.7 µM. Half-maximal cytotoxicity in series [2] (CC50) was put at 79.5 µM.

In the case of `C=C(C)C1CCC2(C)Oc3c(c(O)cc(O)c3C(=O)C(C)C)CC12` (single isomer, unassigned; (+)) [Compound 1a, (+)-japonicol E], the Observed activity in series [1] is 0.919. Besides, in series [6], the “Selective index (CC50/IC50)” value worked out at 23.49 and half-maximal inhibition (IC50) required 8.3 µM. Moreover, the CC50 in series [2] was determined as 195 µM.

As for `CC(C)=CCCC1(C)Oc2c(c(O)cc(O)c2C(=O)C(C)C)CC1O` (single isomer, unassigned; (-)) [Compound 2b, (−)-japonicol F], the Observed activity in series [1] worked out at 1.436. In series [5], this molecule came in with a half-maximal cytotoxic concentration (CC50) of 150 µM. In series [6], the “Selective index (CC50/IC50)” value was found to be 5.50 and the 50% inhibitory concentration (IC50) turned out to be 27.3 µM.

Turning to `CC(C)C(=O)c1c(O)cc(O)c2c1OC1(C)CCC(C(C)(C)O)C2C1O` (stereo not shown) [Compound 5b], the Observed activity in series [1] worked out at 2.149. In series [5], this molecule yielded a 50% cytotoxic concentration (CC50) of more than 500 µM. Moreover, in series [6], the “Selective index (CC50/IC50)” value is more than 3.55 and the midpoint of inhibition, the IC50, lay at 141 µM.

Turning to `Nc1ccn(C[C@@H](CO)OCP(=O)(O)O)c(=O)n1` [Cidofovir, reference compound], in series [2], the 50% cytotoxic concentration (CC50) is more than 1 µM. Further, the selectivity ratio in series [3] is more than 123. This molecule returned a 50% inhibitory concentration (IC50) in series [4] of 0.0081 µM.

As to `CC(C)=CCCC1(C)Oc2c(c(O)cc(O)c2C(=O)C(C)C)CC1O` (single isomer, unassigned; (+)) [Compound 2a, (+)-japonicol F], the Observed activity in series [1] turned out to be 1.447. The same molecule yielded a CC50 in series [2] of 126 µM. The selectivity ratio in series [3] turned out to be 4.5. For the same molecule, inhibition in series [4] was half-maximal at 28 µM (IC50).

As for `CC(C)C(=O)c1c(O)cc(O)c2c1OC1(C)CCC(C(C)(C)O)OC1C2` (stereo not shown) [Compound 6b], the Observed activity in series [1] came out at 1.600. In series [5], this molecule displayed a CC50 of 174 µM.

`CC(C)C(=O)c1c(O)cc(O)c2c1OC1(C)CCC(C(C)(C)O)OC1C2` (stereo not shown) [Compound 6a] yielded an Observed activity in series [1] of 1.247. In series [2], this molecule returned a CC50 of 141 µM.

Turning to `C=C(C)C1CCC2(C)Oc3c(c(O)cc(O)c3C(=O)C(C)C)CC12` (single isomer, unassigned; (-)) [Compound 1b, (−)-japonicol E], in series [1], the Observed activity turned out to be 1.388. This molecule also yielded a CC50 in series [5] of 190 µM. Moreover, in series [6], the “Selective index (CC50/IC50)” value came to 7.78 and the IC50 stood at 24.5 µM.

As to `CC(C)C(=O)c1c(O)cc(O)c(CC2C(C(C)(C)O)CCC2(C)O)c1O` (stereo not shown) [Compound 8a], in series [1], the Observed activity was 1.602. Also, in series [6], the “Selective index (CC50/IC50)” value is more than 7.50 and half-maximal inhibition (IC50) was put at 40 µM. The molecule further came in with a CC50 in series [2] of more than 300 µM.

As to `CC(C)C(=O)c1c(O)cc(O)c(CC2C(C(C)(C)O)CCC2(C)O)c1O` (stereo not shown) [Compound 8b], the Observed activity in series [1] came to 2.200. Besides, the CC50 in series [5] was more than 300 µM. In series [6], the “Selective index (CC50/IC50)” value is more than 1.89 and the IC50 worked out at 158 µM.

Take `CC(C)C(=O)c1c(O)cc(O)c2c1OC(C)(C)C1CCC(C)(O)C1C2` (stereo not shown) [Compound 7b]: the Observed activity in series [1] was determined as 1.464. The same molecule yielded a cytotoxic concentration (CC50) in series [5] of more than 300 µM. This molecule also showed an IC50 in series [6] of 39.8 µM.
